Values of other authors, collected in patent US8580317B2, “Compositions and methods for treating acne” (Revance Therapeutics, Inc., priority 2005, dated 2013).

Legend:
[1] = system: propionibacterium acnes (P. Acnes); settings: background statement
[2] = benzoyl peroxide topically applied

O=C(OOC(=O)c1ccccc1)c1ccccc1 [benzoyl peroxide]
kills P. acnes compared with other medications [1]: better than any other medication on the market
share of the population that experiences skin allergies [2]: about 10%
